Experiments:
[1] = target: T1, hTLR7 (Homo sapiens, UniProt Q9NYK1); test: Human TLR7 Reporter Assay; format: cell-based; settings: HEK-Blue hTLR7 cells, 16 hours, normalized to CL097 (6 μM) and DMSO
T1 construct: host or cells: HEK-Blue hTLR7 cells (HEK293-derived, own knowledge)
T1 sequence (Q9NYK1 27-1049): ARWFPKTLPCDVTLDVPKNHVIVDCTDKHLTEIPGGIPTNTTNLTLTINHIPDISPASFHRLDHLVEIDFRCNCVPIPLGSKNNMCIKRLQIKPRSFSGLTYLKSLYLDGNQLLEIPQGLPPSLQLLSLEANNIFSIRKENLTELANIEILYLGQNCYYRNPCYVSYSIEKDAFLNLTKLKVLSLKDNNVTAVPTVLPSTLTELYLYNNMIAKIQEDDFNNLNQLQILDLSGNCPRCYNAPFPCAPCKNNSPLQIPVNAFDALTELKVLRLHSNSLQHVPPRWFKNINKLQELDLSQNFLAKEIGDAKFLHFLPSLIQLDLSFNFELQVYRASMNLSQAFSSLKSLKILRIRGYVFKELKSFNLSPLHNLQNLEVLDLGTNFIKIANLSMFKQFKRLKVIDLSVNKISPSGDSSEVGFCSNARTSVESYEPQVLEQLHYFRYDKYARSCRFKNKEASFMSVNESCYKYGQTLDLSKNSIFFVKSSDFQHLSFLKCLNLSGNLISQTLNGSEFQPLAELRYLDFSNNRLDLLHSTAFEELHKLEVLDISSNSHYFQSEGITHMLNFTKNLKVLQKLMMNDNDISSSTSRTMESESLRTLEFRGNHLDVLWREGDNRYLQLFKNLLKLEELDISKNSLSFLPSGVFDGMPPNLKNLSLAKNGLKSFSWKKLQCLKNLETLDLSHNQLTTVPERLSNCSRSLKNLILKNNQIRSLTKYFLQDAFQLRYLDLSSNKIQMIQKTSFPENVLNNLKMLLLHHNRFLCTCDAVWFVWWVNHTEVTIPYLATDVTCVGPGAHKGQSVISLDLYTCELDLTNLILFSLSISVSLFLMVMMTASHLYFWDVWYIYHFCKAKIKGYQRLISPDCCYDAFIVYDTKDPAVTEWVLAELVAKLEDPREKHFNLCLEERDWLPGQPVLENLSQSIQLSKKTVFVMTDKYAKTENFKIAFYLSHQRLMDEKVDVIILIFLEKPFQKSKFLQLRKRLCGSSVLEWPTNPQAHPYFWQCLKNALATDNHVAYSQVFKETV
Experimental: (§1) HEK-Blue™ hTLR7 cells (Invivogen, San Diego, Calif.) were maintained at 37° C./5% CO2/90% relative humidity in Dulbecco's Modified Eagle's Medium with 10% fetal bovine serum, 100 units/mL penicillin, 100 μg/mL streptomycin, 100 μg/mL normocin, 10 μg/mL blasticidin, and 100 μg/mL zeocin. HEK-Blue™ hTLR7 cells were maintained at 10-90% confluence and used before passage 20. For this assay, test compounds were dissolved in DMSO, and 10-point serial 3-fold dilution series in DMSO were prepared in Echo Qualified 384-well Polypropylene Microplates (Labcyte, San Jose, Calif.). Assay plates (384-well flat, clear bottom, black polystyrene TC-treated microtiter plates; Corning, Corning, N.Y.) were prepared by dispensing 150 nL of test compounds, high control (CL097; Invivogen, San Diego, Calif.), and low control (DMSO) by ECHO acoustic dispenser (Labcyte, San Jose Calif.) followed by addition of 5 μL of HEK-Blue™ Detection assay media (Invivogen, San Diego, Calif.). HEK-Blue™ hTLR7 cells in HEK-Blue™ Detection assay media (20,000 cells per well in 45 μL of media) were added to the assay plate and incubated for 16 hours at 37° C./5% CO2/90% relative humidity. For detection, assay plates were removed from the incubator, allowed to cool to ambient temperature, centrifuged at 200×g for 1 minutes, and read with an EnSpire Multimode Plate Reader (Perkin Elmer, Waltham, Mass.) for absorbance at 620 nm. Test compound effects were normalized to the window defined by the controls, CL097 (6 μM), and DMSO. Calculated % effects were fit using a 4-parameter algorithm, and EC50 was reported.

[2] = target: T2, hTLR8 (Homo sapiens, UniProt Q9NR97); test: Human TLR8 Reporter Assay; format: cell-based; settings: HEK-Blue hTLR8 cells, 16 hours, normalized to tl8-506 (1 μM) and DMSO
T2 construct: host or cells: HEK-Blue hTLR8 cells (HEK293-derived, own knowledge)
T2 sequence (Q9NR97 27-1041): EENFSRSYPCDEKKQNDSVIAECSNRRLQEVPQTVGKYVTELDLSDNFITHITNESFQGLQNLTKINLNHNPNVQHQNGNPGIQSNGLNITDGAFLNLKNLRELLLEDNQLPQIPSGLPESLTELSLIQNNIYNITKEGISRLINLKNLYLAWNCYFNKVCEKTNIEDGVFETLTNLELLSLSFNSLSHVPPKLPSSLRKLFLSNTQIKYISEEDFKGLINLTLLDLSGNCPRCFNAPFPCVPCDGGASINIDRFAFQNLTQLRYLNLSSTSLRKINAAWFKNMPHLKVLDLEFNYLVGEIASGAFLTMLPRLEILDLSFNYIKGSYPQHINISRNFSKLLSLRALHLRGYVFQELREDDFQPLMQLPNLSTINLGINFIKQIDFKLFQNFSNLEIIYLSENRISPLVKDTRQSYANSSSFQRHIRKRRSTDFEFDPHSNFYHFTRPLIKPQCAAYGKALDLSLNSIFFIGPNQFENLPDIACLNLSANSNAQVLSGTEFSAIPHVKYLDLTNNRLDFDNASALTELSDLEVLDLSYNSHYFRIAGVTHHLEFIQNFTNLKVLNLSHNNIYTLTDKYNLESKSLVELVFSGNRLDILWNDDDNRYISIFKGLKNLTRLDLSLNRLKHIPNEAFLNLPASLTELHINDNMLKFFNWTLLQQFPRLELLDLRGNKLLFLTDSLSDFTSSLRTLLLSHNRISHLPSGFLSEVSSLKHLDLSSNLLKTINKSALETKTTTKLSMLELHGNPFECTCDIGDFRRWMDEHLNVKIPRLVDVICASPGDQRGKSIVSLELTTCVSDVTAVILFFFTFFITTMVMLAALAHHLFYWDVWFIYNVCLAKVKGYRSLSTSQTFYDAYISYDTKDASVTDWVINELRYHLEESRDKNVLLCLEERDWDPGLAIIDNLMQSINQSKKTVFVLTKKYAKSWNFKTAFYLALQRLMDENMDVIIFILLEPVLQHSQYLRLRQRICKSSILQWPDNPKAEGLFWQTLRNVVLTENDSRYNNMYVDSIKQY
Experimental: as §1, with “hTLR8” for “hTLR7”, “(tl8-506;” for “(CL097;”, “tl8-506 (1” for “CL097 (6”

| SMILES | EC50 [1] [nM] | EC50 [2] [nM] |
| --- | --- | --- |
| CCCCNc1nc(N)nc2cn(Cc3c(OC)cc(CNC(=O)C4CCC(CN5C(=O)CC(SC[C@H](N)C(=O)O)C5=O)CC4)cc3OC)nc12 (some centres unmarked) [Compound 92] | 2260 | 11600 |
| CCCCNc1nc(N)nc2cn(Cc3ccc(C4CCNCC4)nc3OC)nc12 [Compound 138] | 191 | 1780 |
| CCCCNc1nc(N)nc2cn(Cc3cccnc3OC)nc12 [Compound 100] | 74.4 | 499 |
| CCCCNc1nc(N)nc2cn(CC3CCCCC3)nc12 [Compound 7] | 2520 | > 29900 |
| CCCCNc1nc(N)nc2cn(Cc3c(OC)ccc(CN4CCN(C(=O)C5CCC(CN6C(=O)CC(SC[C@H](N)C(=O)O)C6=O)CC5)CC4)c3OC)nc12 (some centres unmarked) [Compound 90] | 2210 | 15100 |
| CCCCNc1nc(N)nc2cn(Cc3ccccc3C)nc12 [Compound 3] | 1220 | > 29900 |
| CCCCNc1nc(N)nc2cn(Cc3cccc(N4CCNCC4)c3OC)nc12 [Compound 132] | 708 | 1490 |
| CCCCNc1nc(N)nc2cn(Cc3nnco3)nc12 [Compound 212] | 7750 | 8140 |
| CCCCNc1nc(N)nc2cn(Cc3ccon3)nc12 [Compound 117] | 751 | 2200 |
| CCCCNc1nc(N)nc2cn(Cc3ccc(C4CCCN4)cc3)nc12 (centres unmarked) [Compound 204] | 508 | 533 |
| CCCCNc1nc(N)nc2cn(Cc3cc(N4CCN(C(=O)C5CCC(CN6C(=O)C=CC6=O)CC5)CC4)ccc3OC)nc12 (centres unmarked) [Compound 70] | > 1110 | 908 |
| CCCCNc1nc(N)nc2cn(Cc3ccnn3CC)nc12 [Compound 177] | 681 | 2810 |

Other lines, results leading:

| EC50 [1] [nM] | EC50 [2] [nM] | SMILES |
| --- | --- | --- |
| 1620 | 1640 | CCC[C@@H](CO)Nc1nc(N)nc2cn(Cc3ccc(N4CCNCC4)cc3OC)nc12 [Compound 150] |
| 616 | 7250 | CCCCNc1nc(N)nc2cn(Cc3ccc(C4CCNC4)cc3OC)nc12 (centres unmarked) [Compound 237] |
| 344 | 438 | CCCCNc1nc(N)nc2cn(Cc3ccc(CN4CCNCC4)cc3OC)nc12 [Compound 61] |
| 1370 | > 9980 | CNc1nc(N)nc2cn(Cc3c(OC)cccc3OC)nc12 [Compound 43] |
| 90 | 290 | CCC[C@@H](C)Nc1nc(N)nc2cn(Cc3c(OC)cc(CNC)cc3OC)nc12 [Compound 189] |
| 2800 | > 29900 | COc1cccc(OC)c1Cn1cc2nc(N)nc(NCCC(C)O)c2n1 (centres unmarked) [Compound 52] |
| 4450 | 1810 | CCCCNc1nc(N)nc2cn(Cc3c(OC)ccc(CCN)c3OC)nc12 [Compound 79] |
| 493 | 199 | CCCCNc1nc(N)nc2cn(Cc3c(OC)cc(CN)cc3OC)nc12 [Compound 66] |
| 597 | > 29900 | CCCCNc1nc(N)nc2cn(Cc3c(OC)cc(CNC(=O)C4CCC(CN5C(=O)C=CC5=O)CC4)cc3OC)nc12 (centres unmarked) [Compound 72] |
| 42.2 | 91 | C=CCN(C)Cc1cc(OC)c(Cn2cc3nc(N)nc(N[C@H](CO)CCC)c3n2)c(OC)c1 [Compound 161] |
| 190 | 278 | CCCCNc1nc(N)nc2cn(Cc3ccc(CN(C)C)o3)nc12 [Compound 186] |
| 2370 | 7020 | CCCCNc1nc(N)nc2cn(Cc3ccc(C(N)CCN)cc3OC)nc12 (centres unmarked) [Compound 228] |
| 357 | 179 | CCCCNc1nc(N)nc2cn(Cc3ccc(C(C)N)cc3OC)nc12 (centres unmarked) [Compound 167] |
| 21.8 | 178 | C=CCN(C)Cc1cc(OC)c(Cn2cc3nc(N)nc(NC(C)CCC)c3n2)c(OC)c1 (centres unmarked) [Compound 158] |
| 213 | 3020 | CCC[C@H](CO)Nc1nc(N)nc2cn(Cc3c(OC)cccc3OC)nc12 [Compound 107] |
| 365 | 198 | CCCCNc1nc(N)nc2cn(Cc3c(OC)cc(C(C)NC)cc3OC)nc12 (centres unmarked) [Compound 211] |
